Measurements as given in EP2177209A1, “Intravenous solutions and uses” (priority 2008, dated 2010).
Converted amounts (≈) assume the structure as drawn.

Key:
Neisseria meningitidis = conditions: 20 library strains
Listeria monocytogenes = conditions: 20 library strains
[1] = tested on: methicillin-susceptible Staphylococcus aureus (MSSA)
[2] = tested on: Streptococcus constellatus
[3] = tested on: methicillin-resistant Staphylococcus epidermidis (MRSE)
Moraxella catarrhalis = conditions: 50 strains
Pseudomonas aeruginosa = conditions: 50 strains
Neisseria gonorrhoeae = conditions: 20 library strains
Bacteroides fragilis = conditions: 20 library strains
Helicobacter pylori = conditions: 5 library strains
[4] = tested on: methicillin-susceptible Staphylococcus epidermidis (MSSE)
Clostridium perfringens = conditions: 10 library strains
Haemophilus influenzae = conditions: 70 strains
Escherichia coli = conditions: 50 strains
[5] = tested on: methicillin-resistant Staphylococcus aureus (MRSA)
Clostridium difficile = conditions: 10 library strains

`CCCCCCCCCC(=O)N[C@@H](Cc1c[nH]c2ccccc12)C(=O)N[C@H](CC(N)=O)C(=O)N[C@@H](CC(=O)O)C(=O)N[C@@H]1C(=O)NCC(=O)N[C@@H](CCCN)C(=O)N[C@@H](CC(=O)O)C(=O)N[C@H](C)C(=O)N[C@@H](CC(=O)O)C(=O)NCC(=O)N[C@H](CO)C(=O)N[C@@H]([C@H](C)CC(=O)O)C(=O)N[C@@H](CC(=O)c2ccccc2N)C(=O)O[C@@H]1C` [Daptomycin, daptomycin] was tested, and the “MIC 50%” value (Neisseria meningitidis) was 64 mg/L (≈ 39.5 µM), the “MIC MAX” value (Neisseria meningitidis) was at least 128 mg/L and the “MIC MIN” value (Neisseria meningitidis) was 8 mg/L (≈ 4.94 µM). The “MIC 50%” value (Listeria monocytogenes) was 1 mg/L (≈ 0.617 µM), the “MIC 90%” value (Listeria monocytogenes) was 2 mg/L (≈ 1.23 µM) and the “MIC MAX” value (Listeria monocytogenes) was at least 128 mg/L. For the same compound, the “MIC MIN” value (Listeria monocytogenes) was 0.015 mg/L (≈ 0.00926 µM), the “MIC 50%” value [1] was 0.25 mg/L (≈ 0.154 µM) and the “MIC 90%” value [1] was 0.25 mg/L (≈ 0.154 µM). For the same compound, the “MIC MAX” value [1] was 0.5 mg/L (≈ 0.309 µM), the “MIC MIN” value [1] was 0.06 mg/L (≈ 0.037 µM) and the “MIC 50%” value (Streptococcus sanguis) was 0.25 mg/L (≈ 0.154 µM). For the same compound, the “MIC 90%” value (Streptococcus sanguis) was 0.5 mg/L (≈ 0.309 µM), the “MIC 50%” value [2] was 0.5 mg/L (≈ 0.309 µM) and the “MIC 90%” value [2] was 0.5 mg/L (≈ 0.309 µM). For the same compound, the “MIC MAX” value [2] was 0.5 mg/L (≈ 0.309 µM), the “MIC MIN” value [2] was 0.12 mg/L (≈ 0.074 µM) and the “MIC 50%” value [3] was 0.25 mg/L (≈ 0.154 µM). For the same compound, the “MIC 90%” value [3] was 0.5 mg/L (≈ 0.309 µM), the “MIC MAX” value [3] was 0.5 mg/L (≈ 0.309 µM) and the “MIC MIN” value [3] was 0.06 mg/L (≈ 0.037 µM). For the same compound, the “MIC 50%” value (Moraxella catarrhalis) was 8 mg/L (≈ 4.94 µM), the “MIC 90%” value (Moraxella catarrhalis) was 16 mg/L (≈ 9.87 µM) and the “MIC MAX” value (Moraxella catarrhalis) was at least 128 mg/L. The “MIC MIN” value (Moraxella catarrhalis) was 2 mg/L (≈ 1.23 µM), the “MIC 50%” value (Pseudomonas aeruginosa) was at least 128 mg/L and the “MIC 90%” value (Pseudomonas aeruginosa) was at least 128 mg/L. For the same compound, the “MIC MAX” value (Pseudomonas aeruginosa) was at least 128 mg/L, the “MIC MIN” value (Pseudomonas aeruginosa) was at least 128 mg/L and the “MIC 50%” value (Streptococcus pneumoniae) was 0.12 mg/L (≈ 0.074 µM). The “MIC 90%” value (Streptococcus pneumoniae) was 0.5 mg/L (≈ 0.309 µM), the “MIC MAX” value (Streptococcus pneumoniae) was 0.5 mg/L (≈ 0.309 µM) and the “MIC MIN” value (Streptococcus pneumoniae) was at most 0.03 mg/L. The “MIC 50%” value (Streptococcus bovis) was 0.06 mg/L (≈ 0.037 µM), the “MIC 90%” value (Streptococcus bovis) was 0.12 mg/L (≈ 0.074 µM) and the “MIC MAX” value (Streptococcus bovis) was 0.12 mg/L (≈ 0.074 µM). For the same compound, the “MIC MIN” value (Streptococcus bovis) was at most 0.03 mg/L, the “MIC 50%” value (Neisseria gonorrhoeae) was at least 128 mg/L and the “MIC 90%” value (Neisseria gonorrhoeae) was at least 128 mg/L. The “MIC MIN” value (Neisseria gonorrhoeae) was 64 mg/L (≈ 39.5 µM), the “MIC 50%” value (Bacteroides fragilis) was at least 128 mg/L and the “MIC 90%” value (Bacteroides fragilis) was at least 128 mg/L. The “MIC MAX” value (Bacteroides fragilis) was at least 128 mg/L, the “MIC MIN” value (Bacteroides fragilis) was at least 128 mg/L and the “MIC 50%” value (Helicobacter pylori) was at least 128 mg/L. For the same compound, the “MIC 90%” value (Helicobacter pylori) was at least 128 mg/L, the “MIC MAX” value (Helicobacter pylori) was at least 128 mg/L and the “MIC MIN” value (Helicobacter pylori) was at least 128 mg/L. For the same compound, the “MIC 50%” value (Group C Streptococci) was 0.12 mg/L (≈ 0.074 µM), the “MIC 90%” value (Group C Streptococci) was 0.25 mg/L (≈ 0.154 µM) and the “MIC MAX” value (Group C Streptococci) was 0.5 mg/L (≈ 0.309 µM). The “MIC MIN” value (Group C Streptococci) was at most 0.03 mg/L, the “MIC 90%” value (Streptococcus oralis) was 2 mg/L (≈ 1.23 µM) and the “MIC MAX” value (Streptococcus oralis) was 2 mg/L (≈ 1.23 µM). For the same compound, the “MIC MIN” value (Streptococcus oralis) was 0.25 mg/L (≈ 0.154 µM), the “MIC 50%” value [4] was 0.25 mg/L (≈ 0.154 µM) and the “MIC 90%” value [4] was 0.5 mg/L (≈ 0.309 µM). For the same compound, the “MIC MAX” value [4] was 1 mg/L (≈ 0.617 µM), the “MIC MIN” value [4] was 0.06 mg/L (≈ 0.037 µM) and the “MIC 50%” value (Clostridium perfringens) was 1 mg/L (≈ 0.617 µM). For the same compound, the “MIC 50%” value (Haemophilus influenzae) was at least 128 mg/L, the “MIC 90%” value (Haemophilus influenzae) was at least 128 mg/L and the “MIC MAX” value (Haemophilus influenzae) was at least 128 mg/L. For the same compound, the “MIC MIN” value (Haemophilus influenzae) was at least 128 mg/L, the “MIC 50%” value (Escherichia coli) was at least 128 mg/L and the “MIC 90%” value (Escherichia coli) was at least 128 mg/L. For the same compound, the “MIC MAX” value (Escherichia coli) was at least 128 mg/L, the “MIC MIN” value (Escherichia coli) was at least 128 mg/L and the “MIC 50%” value (Group B Streptococci) was 0.5 mg/L (≈ 0.309 µM). For the same compound, the “MIC 90%” value (Group B Streptococci) was 1 mg/L (≈ 0.617 µM), the “MIC MAX” value (Group B Streptococci) was 1 mg/L (≈ 0.617 µM) and the “MIC MIN” value (Group B Streptococci) was 0.12 mg/L (≈ 0.074 µM). For the same compound, the “MIC 50%” value [5] was 0.25 mg/L (≈ 0.154 µM), the “MIC 90%” value [5] was 0.5 mg/L (≈ 0.309 µM) and the “MIC MAX” value [5] was 1 mg/L (≈ 0.617 µM). For the same compound, the “MIC MIN” value [5] was 0.12 mg/L (≈ 0.074 µM), the “MIC 50%” value (Group A Streptococci) was at most 0.03 mg/L and the “MIC 90” value (Group A Streptococci) was 0.06 mg/L (≈ 0.037 µM). For the same compound, the “MIC MAX” value (Group A Streptococci) was 0.12 mg/L (≈ 0.074 µM), the “MIC MIN” value (Group A Streptococci) was at most 0.03 mg/L and the “MIC 50%” value (Streptococcus mitis) was 0.5 mg/L (≈ 0.309 µM). For the same compound, the “MIC 90%” value (Streptococcus mitis) was 1 mg/L (≈ 0.617 µM), the “MIC MAX” value (Streptococcus mitis) was 1 mg/L (≈ 0.617 µM) and the “MIC MIN” value (Streptococcus mitis) was 0.12 mg/L (≈ 0.074 µM). The “MIC 50%” value (Clostridium difficile) was 0.25 mg/L (≈ 0.154 µM), the “MIC 90%” value (Clostridium difficile) was 2 mg/L (≈ 1.23 µM) and the “MIC MAX” value (Clostridium difficile) was 2 mg/L (≈ 1.23 µM). The “MIC MIN” value (Clostridium difficile) was 0.12 mg/L (≈ 0.074 µM).
